Patent US7169812B2, “Process for producing injectable gabapentin compositions” (Medtronic, Inc., priority 2003, dated 2007)
Entries after “also recorded” stand apart in the source; their conditions may differ.

What was measured:
[1] = water; basic and acidic aqueous solutions; cited from earlier work
[2] = Tonicity of gabapentin dissolved in water; assay type: physicochemical; settings: dissolved in water at 80 mg/ml
Source text: In an embodiment, the invention provides an injectable composition comprising gabapentin, where the composition is substantially isotonic with a physiological fluid of a subject. For example, the injectable solution may be isotonic with a subject's blood or cerebrospinal fluid. Cerebrospinal fluid typically has a tonicity of about 305 mOsm. Accordingly, an embodiment of the invention provides an injectable gabapentin composition having a tonicity of about 290 mOsm to about 320 mOsm. If an injectable composition comprising gabapentin has a tonicity lower than about 290 mOsm to about 320 mOsm, the tonicity may be enhanced by adding a tonicity enhancing agent, such as sodium chloride. As used herein, “tonicity enhancing agent” means a compound or composition that increases tonicity of a composition. However, such tonicities of between about 290 mOsm to about 320 mOsm are not always achievable with gabapentin compositions. For example, gabapentin dissolved in water at a concentration of 80 mg/ml has a tonicity of about 500 mOsm. When the concentration of gabaentin in an injectable composition renders the composition hypertonic relative to a subject's physiological fluid, it is preferred that little or no amount of a tonicity enhancing agent be added to the composition. […]

mouse = settings: cited from earlier work
Crl:CD(SD)IGS BR rats = assay: Intrathecal infusion toxicity study of heat-sterilized gabapentin solutions in rats (Day 1 to Day 29); assay type: in vivo; settings: rat
Experimental: Rats were infused intrathecally with solutions containing varying concentrations of gabapentin.
Injectable solutions containing 80 mg/ml gabapentin were prepared and sterilized by heating to F0=24 as described in Example 1. The heat-sterilized 80 mg/ml gabapentin solutions were diluted in sterile water for injection, USP (Abbott Laboratories; North Chicago, Ill.) to prepare solutions at gabapentin concentrations of 1.67, 4.17, and 37.5 mg/ml as shown in Table 2.
Osmotic minipumps(ALZET® Model 2ML4) were filled with approximately 2 ml of sterile water for Groups 1 and 6 or approximately 2 ml of the appropriate test article preparation for Groups 2 through 5. All dose preparations were filtered using a 0.22 μm filter prior to filling the osmotic minipumps.
The animals were obtained from Charles River Laboratories; Raleigh, N.C.. The animals were cannulated by the supplier in the intrathecal space overlying the lumbar vertebrae. The cannulae consisted of 1.3 cm PE-10 tubing attached to a 7 cm piece of polyurethane tubing (0.025 ID×0.040 OD) with a total dead volume of approximately 23.5 μl. On Day 1 (staggered based on sex), the animals were anesthetized and one prefilled osmotic pump/animal was aseptically inserted subcutaneously on the animal's dorsum. The cannula was filled with sterile water or test article preparation, as appropriate, and the pumps were connected to the intrathecal cannulae. Beginning on Day 1, animals were dosed 24 hours/day at a dose volume of approximately 60.96 μl/day via intrathecal infusion using the osmotic minipump through necropsy on Day 29. At initiation of dosing, the animals were 8 to 9 weeks old, and their body weights ranged from 264 g to 340 g for the males and 191 g to 264 g for the females.
Assessment of toxicity was based on mortality, clinical observations, ophthalmic examinations, body weights, food consumption, clinical pathology, and anatomic pathology. Ophthalmic examinations were performed prior to initiation of treatment and during week 4. An indirect ophthalmoscopy examination was done to include, but was not limited to, a cursory examination of the adnexa and anterior structures of the globe (e.g.,cornea, anterior chamber, lens) and a detailed examination of the ocular fundus. Body weights were taken prior to treatment, on Day 1, and weekly thereafter. Food consumption was measured weekly. At scheduled sacrifices, samples were taken for hematology, coagulation, and clinical chemistry. When possible, blood was collected from animals sacrificed at an unscheduled interval. Tissues were taken from each animal in groups 1 and 4 and each animal sacrificed at an unscheduled interval. Spinal cords were harvested from each animal in Groups 2, 3, and 5. The tissues and spinal cords were processed and examined microscopically. Macroscopic lesions were processed and examined microscopically from animals in Groups 2, 3, and 5. Sections of spinal cord from each animal in Groups 1 and 4 were embedded in paraffin, sectioned, and stained with luxol fast blue, and examined microscopically. Immunohistochemistry of spinal cord sections in paraffin from each animal in Groups 1 and 4 were sectioned, stained with anti-glial acidic fibrillary protein (Dako; Carpinteria, Calif.); rabbit IgG from Vector Laboratories; Burlingame, Calif. was used as a negative control), and examined. […]

NCC1(CC(=O)O)CCCCC1 [gabapentin, 1-(aminomethyl)cyclohexane acetic acid]
Solubility [1]: freely soluble
Tonicity [2]: about 500 mOsm
toxicity (LD50, mouse) (mouse): more than 8000 mg/kg
Overall toxicity / tolerability (Crl:CD(SD)IGS BR rats; continuous intrathecal infusion, 0.10, 0.25, 2.25 and 4.8 mg/day, solutions heated to F0=24, acetic acid): no toxic effects attributable to the infused solutions were observed; also recorded: well tolerated and non-toxic
Glial fibrillary acidic protein immunostaining of spinal cord sections (Crl:CD(SD)IGS BR rats; control vs high-dose group (4.8 mg/day)): no significant variation
Organ weight differences, macroscopic observations, microscopic observations (Crl:CD(SD)IGS BR rats; intrathecal): no test article-related organ weight differences, macroscopic observations, or microscopic observations
Effects on clinical observations, body weights, body weight changes, food consumption, ophthalmic observations, clinical or anatomic pathology observations (Crl:CD(SD)IGS BR rats; intrathecal, 0.10-4.8 mg/day): No clear effects were observed
Effect on clinical pathology test results (Crl:CD(SD)IGS BR rats; intrathecal, terminally sterilized by heat): no obvious or adverse effect
